Read-outs that look alike come from different tables or passages of the source.
Columns and labels:
carrageen oedema = experiment: Antiinflammatory (Carrageen oedema inhibiting) effect; assay type: in vivo
Protocol: 4. Antiinflammatory (Carrageen oedema inhibiting) effect
The experiments were carried out by the method of Winter et al. [Winter, C. A. et al.: Proc. Soc. […] 0.1 ml of a 1 per cent carrageen suspension was injected subcutaneously into the plantar region of one of the hind paws. Rats were fasted for 12 hours and received drinking water ad libitum. One hour before treatment with the test compound the animals were hydrated orally with 30 ml/kg of tap water. The test compounds or the vehicle were administered p.o. in a volume of 10 ml/kg, then one hour later carrageen was applied. The volume of the treated paw was measured by a plethysmometer before and 3 hours after injection in such a way that displacement of the liquid arising from the volume alteration was indicated on a millimeter scale. The volume of the treated paws were compared with those of the control group.

right atrium = experiment: Positive inotropic effect in guinea pig (isolated right atrium); settings: for Frequency: percentage change of atrial frequency; for Concentration force dP/dt: percentage change, 2 Hz, 37° C., concentration not given
Protocol: 2. Positive inotropic effect in guinea pig
The experiments were carried out by the method of Alousi [Alousi, A. A. et al.: J. Cardiovasc. […] Animals weighing 400-600 g were stunned with a blow to the head and exsanguinated. The heart was excised and the right atrium was removed and placed into a modified Tyrode solution of 37° C. It was then preloaded with 2.1 g and stimulated electrically at a rate of 2 Hz by rectangular pulses 0.5 ms in duration. The first derivative by time of the contraction force of the isolated organ (dP/dt) and the atrial frequency were recorded by a polygraph. From the data thus obtained percentage changes were calculated.

[1] = system: anaesthetized cat, left ventricular pressure (dP/dtmax); experiment: Positive inotropic effect in anaesthetized cat; assay type: in vivo; settings: Felis catus, iv; for change in vivo at 1 mg/kg: 1 mg/kg i.v.; for change in vivo at 5 mg/kg: 5 mg/kg i.v.; for change in vivo at 10 mg/kg: 10 mg/kg i.v.
Protocol: 1. Positive inotropic effect in anaesthetized cat
The experiments were carried out on male and female cats anaesthetized with chloralose-urethane (40/300 mg/kg i.p. in a volume of 1 ml/kg). A polyethylene catheter was inserted into the left ventricle via the right subclavian artery. The inotropic activity was measured with the aid of the first derivative by time of the left ventricular pressure curve (dP/dtmax). The blood pressure was measured by means of another catheter introduced from the left femoral artery into the upper third part of the abdominal artery. A Statham P23Db transducer and HSE (Hugo Sachs Electronics) amplifiers were used for both pressure measurements. […] The test compounds were administered via a femoral venous cannula.

[2] = system: rats (vasopressin induced coronaria insufficiency); experiment: Antianginal effect in rats (vasopressin induced coronaria insufficiency); assay type: in vivo; settings: Rattus norvegicus, iv; i.v. 2 minutes prior to vasopressin; T wave in ECG
Protocol: 3.a) Antianginal effect in rats
Rats weighing 180-220 g were narcotized with chloralose-urethane (70/700 mg/kg i.p.). The ECG was registered with needle electrodes in standard II leading. The experimental coronaria insufficiency was induced with vasopressin (1 NE/kg i.v.). The height of T wave in ECG was measured before and after the administration of vasopressin in both the control and treated groups. Test compounds were administered intravenously 2 minutes prior to the treatment with vasopressin.

motility of mice = experiment: Motility inhibiting activity; assay type: in vivo; settings: 100 mg/kg, orally
Protocol: 5. Motility inhibiting activity
The tests were performed according to the method of Borsy et al. [Arch. Int. Pharmacodyn. 124, 1-2 (1960)]. Groups consisting of 3 mice each were treated orally with different doses of the compounds to be tested. Then the test animals were placed in a Dews equipment. In this equipment the number of interruptions of infrared beam within 30 minutes was counted. The inhibition is expressed as the percentage of the value obtained for the control animals.

coronary artery = experiment: Coronary flow test in dog; assay type: in vivo
Protocol: 3.b) Coronary flow test in dog
The experiments were carried out in young mongrel do, of both sexes weighing 10-26 kg. The test compounds were administered in 1-5-10 mg/kg doses intravenously. […] Mean arterial blood pressure was recorded on the carotis with a Statham gauge (type: p23Db). The changes of the myocardial contractile forces were followed isometrically with a microdynamometer (type: Experimetria, SG-01) affixed to the anterior wall of the left ventricle. Data were collected on the first derivate of the myocardial contractile force to follow the changes of the contraction and relaxation speed. […] The changes of the heart rate were also followed. The conductivity of the coronary artery (the ratio of the mean coronary flow and the mean blood pressure) was calculated. The mean values were evaluated statistically using Student's test as well as regression analysis and multiple t test.

[3] = Rattus norvegicus, po, 3 h; read-out: ID30

CC(=O)Oc1ccccc1C(=O)O [Acetylsalicylic acid, reference compound]
ED30 (carrageen oedema; Rattus norvegicus, po, 3 h, read-out: ID30): 62.4 mg/kg

Nc1cc(-c2ccncc2)c[nH]c1=O [Amrinone, reference compound]
Frequency (right atrium): 28% | Concentration force dP/dt (right atrium): 33% | change in vivo at 1 mg/kg [1]: 19% | change in vivo at 5 mg/kg [1]: 53.9% | change in vivo at 10 mg/kg [1]: 48.3%

C=CCN(CC=C)c1c2c(nc3nc(SC)nn13)CCC2 [Example 4, 5-(Diallylamino)-2-(methylthio)-6,7-dihydro-8H-cyclopenta[d]-1,2,4-triazolo[1,5-a]pyrimidine]
ED50 [2]: 1.97 mg/kg

CSc1nc2nc3c(c(NCc4ccccc4)n2n1)CCC3 [Example 6, 5-(Benzylamino)-2-(methylthio)-6,7-dihydro-8H-cyclopenta[d]-1,2,4-triazolo[1,5-a]pyrimidine]
ED50 [2]: 1.49 mg/kg

CSc1nc2nc3c(c(NCc4ccc(Cl)cc4)n2n1)CCC3 [Example 7, 5-(4-Chlorobenzylamino)-2-(methylthio)-6,7-dihydro-8H-cyclopenta[d]-1,2,4-triazolo[1,5-a]pyrimidine]
ED30 (carrageen oedema; [3]): 200 mg/kg

CSc1nc2nc3c(c(N4CCOCC4)n2n1)CCC3 [Example 8, 2-(Methylthio)-5-morpholino-6,7-dihydro-8H-cyclopenta[d]-1,2,4-triazolo[1,5-a]pyrimidine]
Frequency (right atrium): -5% | Concentration force dP/dt (right atrium): 86% | change in vivo at 1 mg/kg [1]: 42.8% | change in vivo at 5 mg/kg [1]: 76% | change in vivo at 10 mg/kg [1]: 86.3%

CSc1nc2nc3c(c(N4CCN(CCO)CC4)n2n1)CCC3 [Example 9, 5-[4-(2-Hydroxyethyl)piperazino]-2-(methylthio)-6,7-dihydro-8H-cyclopenta[d]-1,2,4-triazolo[1,5-a]pyrimidine]
ED50 [2]: ~2 mg/kg

CSc1nc2nc3c(c(NCCN4CCOCC4)n2n1)CCC3 [Example 10, 2-(Methylthio)-5-[N-(2-morpholinoethyl)]amino-6,7-dihydro-8H-cyclopenta[d]-1,2,4-triazolo[1,5-a]pyrimidine]
ED50 [2]: 1.47 mg/kg | ED30 (carrageen oedema; [3]): 120 mg/kg

C1CCN(c2c3c(nc4nc(N5CCOCC5)nn24)CCC3)CC1 [Example 16, 2-Morpholino-5-piperidino-6,7-dihydro-8H-cyclopenta[d]-1,2,4-triazolo[1,5-a]pyrimidine]
ED50 [2]: 1.52 mg/kg | Change in motility vs control (motility of mice): -53%

CSc1nc2nc3c(c(NCCCN4CCOCC4)n2n1)CCCC3 [Example 19, 2-(Methylthio)-5-[N-(3-morpholinopropyl)]amino-6,7,8,9-tetrahydro-1,2,4-triazolo[5,1-b]quinazoline]
Frequency (right atrium): -2% | Concentration force dP/dt (right atrium): 171% | change in vivo at 1 mg/kg [1]: 35% | change in vivo at 5 mg/kg [1]: 72.8% | change in vivo at 10 mg/kg [1]: 90.6%

CN(C)CCCNc1c2c(nc3nc(N4CCOCC4)nn13)CCCC2 [Example 22, 5-[N-(3-Dimethylaminopropyl)]amino-2-morpholino-6,7,8,9-tetrahydro-1,2,4-triazolo[5,1-b]quinazoline]
ED50 [2]: ~2 mg/kg

CCN(CC)c1c2c(nc3nc(N(C)C)nn13)CCCS2 [Example 26, 5-(Diethylamino)-2-(dimethylamino)-7,8-dihydro-9H-thiopyrano[3,2-d]-1,2,4-triazolo[1,5-a]pyrimidine]
ED30 (carrageen oedema; [3]): 170 mg/kg

CC(C)Sc1nc2nc3c(c(NCCCN4CCOCC4)n2n1)CCCC3 [Example 30, 2-(1-Methylethylthio)-5-[N-(3-morpholinopropyl)]amino-6,7,8,9-tetrahydro-1,2,4-triazolo[5,1-b]quinazoline]
Conductivity of the coronary artery (coronary artery; 1 mg/kg i.v.): 166% | Conductivity of the coronary artery (coronary artery; 5 mg/kg i.v.): 397% | Conductivity of the coronary artery (coronary artery; 10 mg/kg i.v.): 481% | change in vivo at 1 mg/kg [1]: 22.3% | change in vivo at 5 mg/kg [1]: 53.8% | change in vivo at 10 mg/kg [1]: 86.8%

CCSc1nc2nc3c(c(NCCN4CCOCC4)n2n1)CCCC3 [Example 31, 2-(Ethylthio)-5-[N-(2-morpholinoethyl)]amino-6,7,8,9-tetrahydro-1,2,4-triazolo[5,1-b]quinazoline]
change in vivo at 1 mg/kg [1]: 46.5% | change in vivo at 5 mg/kg [1]: 131% | change in vivo at 10 mg/kg [1]: 129%

CSc1nc2nc3c(c(NCCN4CCOCC4)n2n1)CCCCCCCCCC3 [Example 35, 2-(Methylthio)-5-[N-(2-morpholinoethyl)]amino-6,7,8,9,10,11,12,13,14,15-decahydro-cyclododeca[d]-1,2,4-triazolo[1,5-a]pyrimidine]
Frequency (right atrium): 8% | Concentration force dP/dt (right atrium): 79% | Conductivity of the coronary artery (coronary artery; 1 mg/kg i.v.): 256% | Conductivity of the coronary artery (coronary artery; 5 mg/kg i.v.): 940% | Conductivity of the coronary artery (coronary artery; 10 mg/kg i.v.): 1030%

CSc1nc2nc3c(c(NCCN4CCOCC4)n2n1)CCCCC3 [Example 37, 2-(Methylthio)-5-[N-(2-morpholinoethyl)]amino-6,7,8,9-tetrahydro-10H-cyclohepta[d]-1,2,4-triazolo[1,5-a]pyrimidine]
Conductivity of the coronary artery (coronary artery; 1 mg/kg i.v.): 188% | Conductivity of the coronary artery (coronary artery; 5 mg/kg i.v.): 371% | Conductivity of the coronary artery (coronary artery; 10 mg/kg i.v.): 780%

CSc1nc2nc3c(c(NCCN4CCOCC4)n2n1)SCCC3 [Example 39, 2-(Methylthio)-5-[N-(2-morpholinoethyl)]amino-7,8-dihydro-9H-thiopyrano[3,2-d]-1,2,4-triazolo[1,5-a]pyrimidine]
Frequency (right atrium): -12% | Concentration force dP/dt (right atrium): 51%

CSc1nc2nc3c(c(NCCN4CCOCC4)n2n1)CCN(Cc1ccccc1)C3 [Example 46, 8-Benzyl-2-(methylthio)-5-[N-(2-morpholinoethyl)]amino-6,7,8,9-tetrahydropyrido[3,4-d]-1,2,4-triazolo[1,5-a]pyrimidine]
Frequency (right atrium): -15% | Concentration force dP/dt (right atrium): 80%

COc1ccc(CNc2c3c(nc4nc(SC)nn24)CCC3)cc1 [Example 50, 2-(Methylthio)-5-(4-methoxybenzylamino)-6,7-dihydro-8H-cyclopenta[d]-1,2,4-triazolo[1,5-a]pyrimidine]
ED30 (carrageen oedema; [3]): 190 mg/kg

CN(C)c1nc2nc3c(c(NCCCN4CCOCC4)n2n1)SCCC3 [Example 53, 2-(Dimethylamino)-5-[N-(3-morpholinopropyl)]amino7,8-dihydro-9H-thiopyrano[3,2-d]-1,2,4-triazolo[1,5-a]pyrimidine]
change in vivo at 0.5 mg/kg ([1]; 0.5 mg/kg i.v.): 35.5% | change in vivo at 1 mg/kg [1]: 48% | change in vivo at 5 mg/kg [1]: 95% | change in vivo at 10 mg/kg [1]: 93.6%

CSc1nc2nc3c(c(N4CCN(Cc5ccccc5)CC4)n2n1)CCC3 [Example 54, 5-(4-Benzylpiperazino)-2-(methylthio)-6,7-dihydro-8H-cyclopenta[d]-1,2,4-triazolo[1,5-a]pyrimidine]
ED30 (carrageen oedema; [3]): 85 mg/kg

CCOC(=O)CNc1c2c(nc3nc(SC)nn13)CCC2 [Example 60, Ethyl N-[2-methylthio-6,7-dihydro-8H-cyclopenta[d]-1,2,4-triazolo[1,5-a]pyrimidin-5-yl]glycinate]
ED50 [2]: ~2 mg/kg

CC(=O)Nc1ccc(O)cc1 [Paracetamol, reference compound]
ED30 (carrageen oedema; [3]): 195 mg/kg
